PMC6179086 (Journal of Enzyme Inhibition and Medicinal Chemistry, 2018)

Key:
Test in all cases: stopped-flow CO2 hydration assay
Assay type in all cases: biochemical
[1] = target: T1, Can2-CA (Cryptococcus neoformans, UniProt Q3I4V7); settings: read-out: Inhibition constant, Ki (μM) / β-family / Can2
T1 construct: recombinant beta-CA, produced as reported earlier; dimer in the docking model
T1 sequence (Q3I4V7 1-239): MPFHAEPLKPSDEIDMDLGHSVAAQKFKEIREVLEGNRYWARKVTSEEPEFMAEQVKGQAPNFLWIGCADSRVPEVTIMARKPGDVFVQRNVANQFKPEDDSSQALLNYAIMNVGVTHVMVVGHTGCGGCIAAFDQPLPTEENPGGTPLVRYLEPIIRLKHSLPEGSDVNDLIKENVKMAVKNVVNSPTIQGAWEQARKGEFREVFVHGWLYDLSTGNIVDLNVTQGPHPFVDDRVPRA

[2] = target: T2, VchCA (Vibrio cholerae, UniProt A0A086SLX8)
T2 construct: gene can
T2 sequence (A0A086SLX8 1-222): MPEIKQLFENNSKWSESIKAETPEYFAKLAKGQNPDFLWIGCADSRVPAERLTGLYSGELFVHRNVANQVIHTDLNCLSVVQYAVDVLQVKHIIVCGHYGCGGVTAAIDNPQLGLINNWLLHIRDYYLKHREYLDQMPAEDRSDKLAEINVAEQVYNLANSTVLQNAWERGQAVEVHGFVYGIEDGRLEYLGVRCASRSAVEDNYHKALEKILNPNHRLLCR

[3] = target: T3, SspCA (Sulfurihydrogenibium sp. YO3AOP1, UniProt B2V8E3); settings: read-out: Inhibition constant, Ki (μM) / α-family / Ssp
T3 construct: recombinant bacterial alpha-CA, produced as reported earlier
T3 sequence (B2V8E3 21-246): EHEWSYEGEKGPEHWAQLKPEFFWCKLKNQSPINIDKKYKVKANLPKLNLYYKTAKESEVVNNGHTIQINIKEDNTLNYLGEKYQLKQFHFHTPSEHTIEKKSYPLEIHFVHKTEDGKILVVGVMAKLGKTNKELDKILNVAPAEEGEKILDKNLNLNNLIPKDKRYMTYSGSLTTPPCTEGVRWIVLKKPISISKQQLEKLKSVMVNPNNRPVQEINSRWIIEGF

[4] = target: T4, MgCA (Malassezia globosa, UniProt A8Q1N3); settings: read-out: Inhibition constant, Ki (μM) / β-family / Mg
T4 construct: gene MGL_1814
T4 sequence (A8Q1N3 1-241): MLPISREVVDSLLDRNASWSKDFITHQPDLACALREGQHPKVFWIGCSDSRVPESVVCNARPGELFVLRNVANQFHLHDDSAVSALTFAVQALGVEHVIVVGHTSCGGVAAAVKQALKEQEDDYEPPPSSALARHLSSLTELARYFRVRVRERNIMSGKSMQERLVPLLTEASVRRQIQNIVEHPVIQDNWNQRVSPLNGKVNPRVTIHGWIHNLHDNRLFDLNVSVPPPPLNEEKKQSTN

[5] = target: T5, hCA IX (Homo sapiens, UniProt Q16790); settings: read-out: Inhibition constant, Ki (μM) / α-family / CAI
T5 construct: gene CA9

Compound | Ki [1] [µM] | Ki [2] [nM] | other results
NC(=O)c1ccc[n+]([O-])c1N [compound 5, 5] | 1.7 | 2100 | 
CCc1cc(C(C)C)c(C(N)=O)c(N)[n+]1[O-] [compound 13, 13] |  | 2800 | 
CCc1cc(C(C)C)[n+]([O-])c(N)c1C(N)=O [compound 16, 16] |  |  | Ki [3]: 58.5 µM
CCc1cc(C)[n+]([O-])c(N)c1C(N)=O [compound 19, 19] |  |  | Ki [3]: 42.2 µM
CC(C)c1cc(-c2ccccc2)c(C(N)=O)c(N)[n+]1[O-] [compound 20, 20] |  |  | Ki [4]: 46.2 µM
CCc1cc(-c2ccccc2)c(C(N)=O)c(N)[n+]1[O-] [compound 21, 21] |  | 2200 | 
NC(=O)c1ncc[n+]([O-])c1N [compound 30, 30] | 1.1 |  | Ki [5]: > 100 µM; Ki [4]: 6.7 µM
Cc1cnc(C(N)=O)c[n+]1[O-] [compound 31, 31] | 1.3 |  | 
